Test results taken from the NIST ThermoML archive (doi:10.1021/je400535t).
Several values for one entry are separate records, joined by “and”; a condition that tells them apart may be missing. Equal values may be shown once.

Assay: molar heat capacity at constant pressure
Details: 101.33 kPa, Crystal, Small (less than 1 g) adiabatic calorimetry

O=C([O][Sb]([O]C(=O)C12CC3CC(CC(C3)C1)C2)([c]1ccccc1)([c]1ccccc1)[c]1ccccc1)C12CC3CC(CC(C3)C1)C2
Details | molar heat capacity at constant pressure
139.88 K | 353.9 J/K/mol
140 K | 356 J/K/mol
141.88 K | 360.2 J/K/mol
143.86 K | 365 J/K/mol
145.81 K | 369.5 J/K/mol
147.78 K | 373.9 J/K/mol
149.76 K | 378.3 J/K/mol
150 K | 378.8 J/K/mol
152.23 K | 383.7 J/K/mol
155.2 K | 391.3 J/K/mol
158.16 K | 397.8 J/K/mol
160 K | 401.7 J/K/mol
161.11 K | 404.3 J/K/mol
164.04 K | 411.2 J/K/mol
166.97 K | 417.6 J/K/mol
169.88 K | 424.5 J/K/mol
170 K | 424.6 J/K/mol
172.78 K | 430.6 J/K/mol
175.68 K | 437 J/K/mol
178.57 K | 443.5 J/K/mol
180 K | 447.4 J/K/mol
181.43 K | 450.4 J/K/mol
184.29 K | 457.3 J/K/mol
187.14 K | 463.9 J/K/mol
189.9 K | 470 J/K/mol
190 K | 470.3 J/K/mol
192.72 K | 477.1 J/K/mol
195.53 K | 483.7 J/K/mol
198.33 K | 489.7 J/K/mol
200 K | 493.6 J/K/mol
201.12 K | 496.2 J/K/mol
203.89 K | 503 J/K/mol
209.43 K | 515.8 J/K/mol
210 K | 517.7 J/K/mol
212.2 K | 523 J/K/mol
214.96 K | 529.5 J/K/mol
217.72 K | 536.6 J/K/mol
220 K | 542.3 J/K/mol
220.47 K | 543.8 J/K/mol
223.23 K | 550 J/K/mol
225.98 K | 556.9 J/K/mol
228.73 K | 564.4 J/K/mol
230 K | 567.3 J/K/mol
231.48 K | 571.2 J/K/mol
234.15 K | 576.4 J/K/mol
236.89 K | 583.6 J/K/mol
239.63 K | 590.6 J/K/mol
240 K | 591.6 J/K/mol
242.35 K | 597.2 J/K/mol
245.08 K | 603.8 J/K/mol
247.81 K | 610.3 J/K/mol
250 K | 615.4 J/K/mol
250.54 K | 617 J/K/mol
253.26 K | 623.5 J/K/mol
255.99 K | 630.5 J/K/mol
258.71 K | 636.5 J/K/mol
260 K | 639.5 J/K/mol
261.43 K | 643.1 J/K/mol
264.15 K | 650.3 J/K/mol
266.87 K | 656.1 J/K/mol
269.6 K | 662.2 J/K/mol
270 K | 664 J/K/mol
272.32 K | 669 J/K/mol
275.04 K | 675.8 J/K/mol
277.75 K | 683.5 J/K/mol
280 K | 689.1 J/K/mol
280.46 K | 690.8 J/K/mol
283.18 K | 697.8 J/K/mol
285.9 K | 703.7 J/K/mol
288.62 K | 711.2 J/K/mol
290 K | 714.3 J/K/mol
291.34 K | 717.9 J/K/mol
294.06 K | 724.7 J/K/mol
296.83 K | 732.2 J/K/mol
298.15 K | 734.7 J/K/mol
299.59 K | 739 J/K/mol
300 K | 739.3 J/K/mol
302.36 K | 745.1 J/K/mol
305.06 K | 750.5 J/K/mol
307.66 K | 756.7 J/K/mol
310 K | 763.8 J/K/mol
310.21 K | 763.5 J/K/mol
312.71 K | 769.8 J/K/mol
315.15 K | 776 J/K/mol
317.53 K | 781.5 J/K/mol
319.66 K | 787.9 J/K/mol
320 K | 787.8 J/K/mol
321.94 K | 792.5 J/K/mol
324.16 K | 798.1 J/K/mol
326.33 K | 802.6 J/K/mol
328.44 K | 808.3 J/K/mol
330 K | 811.6 J/K/mol
330.51 K | 813 J/K/mol
332.48 K | 818.5 J/K/mol
334.44 K | 823.2 J/K/mol
336.34 K | 827.3 J/K/mol
338.2 K | 831.4 J/K/mol
340 K | 835.5 J/K/mol and 835.4 J/K/mol
341.76 K | 839.5 J/K/mol
343.47 K | 842.9 J/K/mol
345 K | 846.6 J/K/mol
346.75 K | 850.4 J/K/mol
348.1 K | 853.8 J/K/mol
349.45 K | 857 J/K/mol
350 K | 859 J/K/mol
350.59 K | 860.6 J/K/mol
352.03 K | 864 J/K/mol
353.43 K | 868 J/K/mol
360 K | 882 J/K/mol
370 K | 904 J/K/mol
380 K | 926 J/K/mol
390 K | 949 J/K/mol
400 K | 972 J/K/mol
410 K | 996 J/K/mol
420 K | 1020 J/K/mol
430 K | 1044 J/K/mol
440 K | 1067 J/K/mol
450 K | 1091 J/K/mol
460 K | 1118 J/K/mol
470 K | 1152 J/K/mol
480 K | 1201 J/K/mol
490 K | 1251 J/K/mol
498 K | 1289 J/K/mol
